Data published in patent publication US20240067600A1, “SMALL MOLECULE INHIBITORS OF THE MITOCHONDRIAL PERMEABILITY TRANSITION PORE (mtPTP)” (UNIVERSITY OF KANSAS, priority 2014, published 2024).

Tests used:
Format in all cases: biochemical, mice
[1] = system: IMM potential; test: Rhodamine 123 (Rh123) uptake counterscreen; settings: Table 1; read-out: Rh123 uptake (EC50);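 note: isolated mitochondria respiring on glutamate plus malate in sucrose MOPS-Tris buffer at pH 7.4, Rh123 added with the organelles, compounds tested across a twofold dilution series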
Procedure: Assay buffer: 250 mM sucrose, 10 mM MOPS-Tris, 0.01 mM EGTA-Tris, 1.0 mM phosphoric acid-Tris, pH 7.4 • Solution 1. 5.0 mM glutamate and 2.5 mM malate in Assay Buffer. • Solution 2. 1% DMSO in Solution 1. • Solution 3. 0.8 μM FCCP (the stock 40 μM in DMSO) in Solution 1. • Solution 4. 0.5 mg/mL mitochondria and 0.8 μM Rh123 in Assay Buffer.
Protocol Summary: • 1. Freshly isolate mitochondria, prepare solutions according to the recipes in the Reagent Section. • 2. Dispense 100 μL of Solution 3 to Columns 1-2 and Solution 2 Columns 11-12 (positive and negative controls, respectively) of the 96-well black assay plate (Falcon 353376). • 3. Dispense 200 μL of Solution 1 to Row A Columns 3-10. • 4. Next, dispense 100 μL of Solution 2 to Rows B-H Columns 3-10. • 5. Add 4 μL of 10 mM test compounds in DMSO to Row A Columns 3-10, perform 1:2 serial dilutions Row A to H Columns 3-10. • 6. Finally, dispense 100 μL of Solution 4 in all wells. The reaction starts. • 7. Keep the plate at room temperature for 5 minutes and then read fluorescence (excitation 485 nm, emission 538 nm) on Fluoroskan Ascent FL, Thermo Scientific.
Concentration-Response Counterscreen Assay to Identify Compounds that Prevent Mitochondrial Swelling Via Interference with the IMM Potential (SAR Assay AID No. 743361)
Assay buffer: 250 mM sucrose, 10 mM MOPS-Tris, 0.01 mM EGTA-Tris, 1.0 mM phosphoric acid-Tris, pH 7.4 • Solution 1. 5.0 glutamate and 2.5 mM malate in Assay Buffer. • Solution 2. 1% DMSO in Solution 1. • Solution 3. 0.8 μM FCCP (the stock 40 μM in DMSO) in Solution 1. • Solution 4. 0.5 mg/mL mitochondria and 0.8 μM Rh123 in Assay Buffer.

[2] = system: mtPTP; test: Calcium retention capacity (CRC) assay on isolated mitochondria; settings: Table 1, average ± SEM; for Calcium Retention Capacity (CRC/CRC0 at 12.5 μM): 12.5 μM compound; for Calcium Retention Capacity (CRC/CRC0) at 1.56 μM: 1.56 μM compound
Procedure: Assay buffer: 250 mM sucrose, 10 mM MOPS-Tris, 0.01 mM EGTA-Tris, 1.0 mM phosphoric acid-Tris, pH 7.4. • Solution 1. 10 mM glutamate and 5 mM malate in Assay buffer. • Solution 2. 1% DMSO in Solution 2. • Solution 3. 0.5 mg/mL mitochondria and 1.0 μM Calcium Green-5N in Assay Buffer. • Solution 4. 0.25 mM CaCl2).
Protocol Summary: • 1. Freshly isolate mitochondria, prepare solutions according to the recipes in the Reagent Section. • 2. Dispense 100 μL of Solution 2 to Columns 1-2 (negative control) of the 96-well black assay plate (Falcon 353376). • 3. Dispense 200 μL of Solution 1 to Row A Columns 3-12. • 4. Next, dispense 100 μL of Solution 2 to Rows B-H Columns 3-12. • 5. Add 4 μL of 5 mM test compounds in DMSO to Row A Columns 3-12, perform 1:2 serial dilutions Row A to H Columns 3-12. • 6. Finally, dispense 100 μL of Solution 3 in all wells. • 7. Experiment starts. Read Calcium Green-5N fluorescence (excitation 485 nm, emission 538 nm) and perform a train of 4 μL Solution 4 additions with Fluoroskan Ascent FL, Thermo Scientific.

[3] = system: Mitochondrial Permeability Transition Pore; test: Mitochondrial swelling absorbance assay; settings: Table 1, average ± SEM
Procedure: Mitochondrial Swelling (Hit Validation, Confirmatory Assay, Concentration-Response, AID No. 720722)
Assay buffer: 250 mM sucrose, 10 mM MOPS-Tris, 0.01 mM EGTA-Tris, 1.0 mM phosphoric acid-Tris, pH 7.4 • Solution 1. 5.0 mM glutamate and 2.5 mM malate in Assay buffer. • Solution 2. 80-120 μM CaCl2) depending on mitochondrial activity in Solution 1. Note: Concentration of Ca^2+ in the assay is dependent upon the activity of the isolated mitochondria which is determined via a calcium titration just before each screening batch. A Ca^2+ concentration is used that allows for the arrival at a 2:1 window at the 20 minute time period. • Solution 3. 1% DMSO in Solution 2. • Solution 4. 2.0 mM EGTA-Tris, pH 7.4 in Solution 3. • Solution 5. 0.5 mg/mL mitochondria in Assay Buffer.
Protocol Summary: • 1. Freshly isolate mitochondria, prepare solutions according to the recipes in the reagent section • 2. Dispense 100 μL of Solution 4 to Columns 1-2 and Solution 3 Columns 11-12 (positive and negative controls, respectively) of the 96-well clear assay plate (Falcon 353072) • 3. Dispense 200 μL of Solution 1 to Row A Columns 3-10. • 4. Next, dispense 100 μL of Solution 3 to Rows B-H Columns 3-10. • 5. Add 4 μL of 5 mM test compounds in DMSO to Row A Columns 3-10, perform 1:2 serial dilutions Row A to H Columns 3-10. • 6. Finally, dispense 100 μL of Solution 5 in all wells. The reaction starts. • 7. Keep the plate at room temperature for 20 minutes and then read absorbance at 540 nm on MultiSkan EX, Thermo Scientific.
Concentration-Response Assay to Identify Compounds that Inhibit Mitochondrial Swelling (SAR Assay AID No. 743359)
Assay buffer: 250 mM sucrose, 10 mM MOPS-Tris, 0.01 mM EGTA-Tris, 1.0 mM phosphoric acid, pH 7.4 • Solution 1. 5.0 mM glutamate and 2.5 mM malate in Assay Buffer. • Solution 2. 100-120 μM CaCl2) depending on mitochondrial activity in Solution 1. Note: Concentration of Ca^2+ in the assay is dependent upon the activity of the isolated mitochondria which is determined via a calcium titration just before each screening batch. A Ca^2+ concentration is used that allows for the arrival at a 2:1 window at the 20 minute time period. • Solution 3. 1% DMSO in Solution 2. • Solution 4. 2.0 mM EGTA-Tris, pH 7.4 in Solution 3. • Solution 5. 0.5 mg/mL mitochondria in Assay Buffer.
Protocol Summary: • 1. Freshly isolate mitochondria, prepare solutions according to the recipes in the Reagent Section. • 2. Dispense 100 μL of Solution 4 to Columns 1-2 and Solution 3 Columns 11-12 (positive and negative controls, respectively) of the 96-well clear assay plate (Falcon 353072). • 3. Dispense 200 μL of Solution 1 to Row A Columns 3-10. • 4. Next, dispense 100 μL of Solution 3 to Rows B-H Columns 3-10. • 5. Add 4 μL of 5 mM test compounds in DMSO to Row A Columns 3-10, perform 1:2 serial dilutions Row A to H Columns 3-10. • 6. Finally, dispense 100 μL of Solution 5 in all wells. The reaction starts. • 7. Keep the plate at room temperature for 20 minutes and then read absorbance at 540 nm on MultiSkan EX, Thermo Scientific.

Row | EC50 [3] | EC50 ([3]; unit inferred) | Compound | EC50 [1] | Calcium Retention Capacity (CRC/CRC0 at 12.5 μM) [2] | Calcium Retention Capacity (CRC/CRC0) at 1.56 μM [2]
1 |  | 100 ± 9.6 nM | Cc1cnc(Cl)cc1NC(=O)c1cc(-c2cccc(O)c2)on1 | > 100000 nM | 5.51 ± 0.99 | 
2 | 78 ± 5 nM |  | Cc1cc(Cl)cc(NC(=O)c2cc(-c3cccc(O)c3)on2)c1 | > 100000 nM | 9.34 ± 1.04 | 
3 | 13 ± 2 nM |  | O=C(Nc1cccc(Cl)c1)c1cc(-c2ccc(F)c(O)c2)on1 | > 100000 nM | 10.17 ± 0.69 | 
4 | 0.134 ± 0.016 nM |  | Cc1ccc(Cl)cc1NC(=O)c1cc(-c2ccc(F)c(O)c2)on1 | > 100000 nM | 19.28 ± 1.59 | 15.21 ± 1.26
5 | 24 ± 2.2 nM |  | Cc1ncc(Cl)cc1NC(=O)c1cc(-c2cccc(O)c2)on1 | > 100000 nM | 10.09 ± 0.91 | 6.62 ± 0.89
6 | 3.5 ± 0.7 nM |  | Cc1ccc(Cl)cc1NC(=O)c1cc(-c2cccc(O)c2)on1 | > 100000 nM | 14.99 ± 1.20 | 9.63 ± 0.29
7 | 12500 ± 668 nM |  | O=C(Nc1cccc(Cl)c1Cl)c1cc(-c2cccc(O)c2)on1 | > 100000 nM | 4.00 ± 0.42 | 
8 | 1520 ± 51.2 nM |  | O=C(Nc1cc(Cl)ccc1Cl)c1cc(-c2cccc(O)c2)on1 | 38500 ± 3980 nM | 4.67 ± 0.31 | 
9 | 42700 ± 2590 nM |  | COc1c(Cl)cccc1NC(=O)c1cc(-c2cccc(O)c2)on1 | > 100000 nM | 1.83 ± 0.17 | 
10 | 190 ± 17 nM |  | O=C(Nc1cc(Cl)cc(Cl)c1)c1cc(-c2cccc(O)c2)on1 | > 100000 nM | 12.08 ± 1.92 | 5.72 ± 0.25
11 | 30 ± 2.6 nM |  | N#Cc1ccc(Cl)cc1NC(=O)c1cc(-c2cccc(O)c2)on1 | > 100000 nM | 13.99 ± 1.50 | 7.69 ± 0.61
12 | 17600 ± 2210 nM |  | O=C(Nc1cc(Cl)ccc1OCc1ccccc1)c1cc(-c2cccc(O)c2)on1 | > 100000 nM | 1.59 ± 0.33 | 
13 | 30 ± 2.2 nM |  | Cc1ccccc1NC(=O)c1cc(-c2cccc(O)c2)on1 | > 100000 nM | 8.16 ± 0.92 | 
14 | 172 ± 14 nM |  | O=C(Nc1cc(Cl)ccc1F)c1cc(-c2cccc(O)c2)on1 | > 100000 nM |  | 3.77 ± 0.17 (at 1.56 μM)
15 | 66 ± 3.2 nM |  | O=C(Nc1cc(Cl)ccc1Cl)c1cc(-c2ccc(F)c(O)c2)on1 | > 100000 nM | 12.15 ± 1.36 | 6.50 ± 0.77
16 | 60 ± 7.6 nM |  | COc1ccc(Cl)cc1NC(=O)c1cc(-c2cccc(O)c2)on1 | > 100000 nM | 10.89 ± 1.34 | 6.95 ± 1.15
17 | 1610 ± 866 nM |  | CN(C)c1ccc(Cl)cc1NC(=O)c1cc(-c2cccc(O)c2)on1 | > 100000 nM | 2.22 ± 0.38 | 
18 | 217 ± 51.8 nM |  | COc1ccc(-c2cc(C(=O)Nc3cc(Cl)ccc3F)no2)cc1O | > 100000 nM | 5.37 ± 0.58 | 

The next lines start with the compound.

Row | Compound | EC50 [3] | EC50 ([3]; unit inferred) | EC50 [1] | Calcium Retention Capacity (CRC/CRC0 at 12.5 μM) [2] | Calcium Retention Capacity (CRC/CRC0) at 1.56 μM [2]
19 | Cc1ccc(Cl)cc1NC(=O)c1ccc(-c2cccc(O)c2)cc1 | 4710 ± 349 nM |  | > 100000 nM | 2.59 ± 0.22 | 
20 | COc1ccc(-c2cc(C(=O)Nc3cccc(Cl)c3Cl)no2)cc1O | 108 ± 10 nM |  | > 100000 nM |  | 5.21 ± 0.50 (at 1.56 μM)
21 | COc1ccc(-c2cc(C(=O)Nc3cccc(Cl)c3C)no2)cc1O | 0.0283 ± 0.0048 nM |  | > 100000 nM | 13.44 ± 0.93 | 9.59 ± 0.85
22 | COc1ccc(-c2cc(C(=O)Nc3cc(Cl)cnc3C)no2)cc1O | 11 ± 1.1 nM |  | > 100000 nM | 13.47 ± 1.32 | 10.10 ± 1.14
23 | Cc1ncc(Cl)cc1NC(=O)c1cc(-c2ccc(F)c(O)c2)on1 | 16 ± 1.9 nM |  | > 100000 nM | 10.69 ± 1.00 | 9.12 ± 0.88
24 | O=C(Nc1cccc(Cl)c1)c1cc(-c2ccc(O)cc2)on1 | 2210 ± 174 nM |  | > 100000 nM | 3.50 ± 0.57 | 
25 | Cc1ccccc1NC(=O)c1cc(-c2ccc(O)cc2)on1 | 2450 ± 148 nM |  | > 100000 nM | 2.94 ± 0.46 | 
26 | COc1ccc(-c2cc(C(=O)Nc3cc(Cl)ccc3C)no2)cc1O | 0.00756 ± 0.00122 nM |  | > 100000 nM | 14.44 ± 0.58 | 10.02 ± 0.34
27 | Cc1c(Cl)cccc1NC(=O)c1cc(-c2ccc(Cl)c(O)c2)on1 | 0.18 ± 0.042 nM |  | > 100000 nM |  | 8.22 ± 0.58 (at 1.56 μM)
28 | Cc1ncc(Cl)cc1NC(=O)c1cc(-c2ccc(Cl)c(O)c2)on1 | 1.34 ± 0.26 nM |  | > 100000 nM |  | 6.91 ± 0.47 (at 1.56 μM)
29 | Cc1ccc(Cl)cc1NC(=O)c1cc(-c2ccc(Cl)c(O)c2)on1 | 2.16 ± 0.45 nM |  | > 100000 nM |  | 6.21 ± 0.66 (at 1.56 μM)
30 | Cc1ccc(Cl)cc1NC(=O)c1cc(-c2ccc(F)c(O)c2)[nH]n1 | 1.4 ± 0.2 nM |  | 30400 ± 5500 nM |  | 10.92 ± 0.74 (at 1.56 μM)
31 | COc1ccc(-c2cc(C(=O)Nc3cc(Cl)ccc3C)n[nH]2)cc1O | 2.4 ± 0.4 nM |  | > 100000 nM |  | 7.51 ± 0.47 (at 1.56 μM)
32 | Cc1cccc(C)c1NC(=O)c1cc(-c2cccc(O)c2)on1 | 12.1 ± 1.4 nM |  | > 100000 nM |  | 8.12 ± 0.59 (at 1.56 μM)
33 | COc1ccc(-c2cc(C(=O)Nc3cccc(Cl)c3)no2)cc1O | 35 ± 4.2 nM |  | > 100000 nM | 7.18 ± 0.87 | 
34 | COc1ccc(-c2cc(C(=O)Nc3cc(Cl)ccc3OC)no2)cc1O | 97 ± 3.4 nM |  | > 100000 nM | 9.89 ± 1.31 | 6.62 ± 0.84
35 | COc1ccc(-c2cc(C(=O)Nc3cc(Cl)ccc3Cl)no2)cc1O | 146 ± 11.5 nM |  | > 100000 nM | 9.59 ± 1.29 | 4.34 ± 0.53
36 | Cc1ccc(Cl)cc1NC(=O)c1cc(-c2ccccc2O)on1 | 6060 ± 748 nM |  | > 100000 nM | 2.10 ± 0.26 | 
37 | COc1ccc(-c2cc(C(=O)Nc3cc(Cl)ncc3C)no2)cc1O [drawing 129] |  | 366 ± 47.5 nM |  |  | 
38 | O=C(Nc1cccc(Cl)c1)c1cc(-c2cccc(O)c2)on1 [drawing 166] |  |  |  | 5.47 ± 0.57 | 
39 | COc1ccc(Cl)cc1C(=O)Nc1ccc(CCN2CCN(C(=O)OC(C)(C)C)CC2)cc1 [drawing 174] |  |  |  | 1.90 ± 0.11 | 
40 | COc1ccc(/C=C/C(=O)Nc2cccc(Cl)c2)cc1O [drawing 175] |  |  |  | 14.02 ± 1.63 | 
41 | COc1ccc(-c2cc(C(=O)Nc3cc(Cl)cc(Cl)c3)no2)cc1O [drawing 192] |  |  |  | 3.52 ± 0.44 | 
